Source: patent publication US20230114207A1, “THE COMBINATION OF CYCLIN DEPENDENT KINASE 7 INHIBITOR AND IMMUNOTHERAPY FOR TREATMENT OF CANCER” (Dana-Farber Cancer Institute, Inc., priority 2019, published 2023)

Experiments:
RPP631 and GLC16 cells = assay: Immunofluorescence of γH2AX foci and micronuclei; format: cell-based, mouse, human
Protocol: Before fixation, cells in PBS were seeded for 30 min on 0.01% Poly-lysine coated coverslip. Cells were then fixed in 4% paraformaldehyde (Diluted the 32% paraformaldehyde in PBS, Electron Microscopy Sciences 15714) for 10 min at room temperature. Cells were washed three times for 5 min with 200 mM glycine containing PBS, followed by permeabilization with 0.3% Triton X-100 in PBS for 15 min. After blocking with 5% bovine serum albumin (BSA) in PBS for 1 hour, cells were incubated with primary antibody (γH2A.X, Cell signaling 9718, 1:200) diluted in a 5% BSA in PBS solution overnight at 4° C. After washing four times with PBS, cells were incubated with Alexa Fluor Plus 555 (Invitrogen A32732, 1: 500) secondary antibody for 1 hour and washed three times with PBS. Cell nuclei were counterstained with DAPI (Biolengend 422801, diluted to 600 nM in PBS) for 5 min. Cells were washed two more times in PBS before mounting with Fluorescence Mounting Medium (Dako, S3023). Images were acquired using Zeiss 880 Laser Scanning Confocal Microscope and were processed by FIJI (NIH). Micronucleus were identified manually by distinct DAPI staining outside the main nucleus.

cGAS-STING pathway = cGAS-STING pathway analysis (western blotting; cGAS knockout RT-qPCR); format: cell-based, mouse, human; conditions: DMS79, RPP631, cGAS knockout RPP631
Protocol: Cell pellets were collected and then subjected to total RNA extraction using RNeasy Plus Mini Kit (QIAGEN, Cat #74136) according to the manufacturer's instructions, or using TRIzol:Chloroform phase-separation by centrifugation followed by RNA precipitation using isopropanol. The extracted RNA was reversely transcribed into cDNA using the High-Capacity RNA-to-cDNA™ Kit (Thermo Fisher Scientific, Cat #4387406) according to the manufacturer's instructions. The obtained cDNA samples were diluted and used for RT-qPCR. PowerUp™ SYBR™ Green Master Mix (Thermo Fisher Scientific, Cat #A25742) or TaqMan Gene Expression Master Mix (Life Technologies, Cat #4369514). Gene specific primers with sequences listed in Table 3 were used for PCR amplification and detection on the StepOnePlus™ Real-Time PCR System (Thermo Fisher Scientific). RT-qPCR data were normalized to Actb (mouse cells) or GUSB (human cells) and presented as fold changes of gene expression in the test sample compared to the control.
Cells in culture were collected by centrifuging at 1,500 rpm and then washed with ice-cold PBS twice to completely remove residual medium. […] Protein concentrations in lysates were measured by Pierce™ BCA Protein Assay Kit (Thermo Fisher Scientific, Cat #23225) and followed by the addition of SDS loading buffer (6×) and heated at 95° C. for 5 min. […]

RPP-MYC orthotopic model = assay: Treatment study in RPP-MYC orthotopic SCLC model; format: in vivo, mouse
Protocol: All animal studies were reviewed and approved by the Institutional Animal Care and Use Committee (IACUC) at the New York University Langone Health (NYULH) and Dana-Farber Cancer Institute (DFCI). From 6 weeks of age, mice were induced with adenovirus-Cre recombinase (Ad-Cre) by intratracheal intubation to allow cre-lox-mediated recombination of floxed Rb1, p53 and p130 alleles. For syngeneic orthotopic models, ultrasound-guided transthoracic injection was performed using 200,000 RPP631, RP or RPP-MYC cells in 30 μL PBS directly into the lung of 6 to S-week-old C57BL/6 (Jackson Laboratory, Stock No: 000664). For OT-IT cell assay, OT-I mice were purchased from the Jackson Laboratory (Stock No: 003S31). Both males and females mice were used and all mice were maintained in accordance with the respective NYULH and DFCI on the care, welfare, and treatment of laboratory animals. […]
Animals were anesthetized with isoflurane to perform MRI of the lung field using BioSpec USR70/30 horizontal bore system (Bruker) to scan 24 consecutive sections. Tumor volumes within the whole lung were quantified using 3-D slicer software to reconstruct MRI volumetric measurements as described previously. […]

[1] = tested on: tumor-infiltrating immune cells, RPP orthotopic model; assay: Immune profiling flow cytometry of tumor-bearing lung; format: in vivo, mouse
Protocol: Mice were humanely euthanized, and mouse lungs were perfused using sterile PBS through heart perfusion from the left ventricle after BAL fluid collection. The whole lung was cut and minced into small pieces followed by digestion in collagenase D (Sigma-Aldrich) and DNase I (Sigma-Aldrich) in Hank's Balanced Salt Solution (HBSS) at 37° C. for 30 minutes. After incubation, the digested tissue was subjected to a 70 μm cell strainer (Thermo Fisher Scientific) to obtain single-cell suspensions. Separated cells were treated with 1×red blood cell (RBC) lysis buffer (BioLegend). Live cells were determined by LIVE/DEAD fixable aqua dead cell stain kit (Molecular Probes). The cell pellets were resuspended in PBS with 2% FBS for FAGS analysis. Cells were stained with cell surface markers as indicated followed by fixation/permeabilization (eBioscience). Cells were imaged on BD LSRFortessa (BD Biosciences) and analyzed using FlowJo software (Tree Star).

C=CC(=O)Nc1ccc(C(=O)Nc2n[nH]c3c2CN(C(=O)N[C@H](CN(C)C)c2ccccc2)C3(C)C)cc1 [YKL-5-124]
percentages of cells containing micronuclei (RPP631 and GLC16 cells; RPP631 and GLC16): considerably increased | γH2AX foci (RPP631 and GLC16 cells; after 48 hr): significant increase | dependence of the immune stimulatory effect on the cGAS-STING pathway (cGAS-STING pathway): independent of this pathway | tumor response / tumor growth (MRI tumor volume) (RPP-MYC orthotopic model): notably delayed tumor growth | CD44^highCD62L^+ effector CD4^+ T cells (CD44^highCD62L^low for the combination) ([1]; 7-day treatment): substantial increase | GzmB^+ CD8^+ T cells percentage ([1]; 7-day treatment): considerable but equivalent increase | ICOS^+ CD4^+ T cells ([1]; 7-day treatment): significantly higher frequencies | frequencies of total CD4^+ T cell infiltrates ([1]; 7-day treatment): no significant change | frequencies of total CD8^+ T cell infiltrates ([1]; 7-day treatment): no significant change | tumor-infiltrating CD4^+ T cells expressing Ki67 ([1]; 7-day treatment): modest increase | percentages of tumor resident DCs (MHCII^+ CD11c^+ CD103^+) ([1]; compared to control mice): significant increase
